Experimental data taken from patent publication US11713344B2 (DONG-A ST CO., LTD., priority 2017, dated 2023).

Columns and labels:
[1] = target: Human glucagon receptors (Homo sapiens, UniProt P47871); assay: Glucagon receptor activation assay (CRE-luciferase reporter, CHO-K1)
[2] = target: Human GLP-1 receptors (Homo sapiens, UniProt P43220); assay: GLP-1 receptor activation assay (CRE-luciferase reporter, CHO-K1)
Sequence of Human GLP-1 receptors (P43220 24-463): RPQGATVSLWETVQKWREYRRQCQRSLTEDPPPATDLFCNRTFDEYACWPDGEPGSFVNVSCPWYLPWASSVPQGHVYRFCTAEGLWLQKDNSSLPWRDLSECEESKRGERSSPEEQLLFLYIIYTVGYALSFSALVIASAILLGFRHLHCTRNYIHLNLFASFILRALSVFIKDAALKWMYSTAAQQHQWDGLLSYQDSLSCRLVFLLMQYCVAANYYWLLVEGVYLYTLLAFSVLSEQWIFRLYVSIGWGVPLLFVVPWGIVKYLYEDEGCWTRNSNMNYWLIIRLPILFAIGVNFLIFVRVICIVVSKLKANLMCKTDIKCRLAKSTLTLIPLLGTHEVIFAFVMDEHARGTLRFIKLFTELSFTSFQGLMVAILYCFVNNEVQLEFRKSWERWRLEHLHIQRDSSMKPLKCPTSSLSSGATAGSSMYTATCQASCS
Procedure: Then, the resulting increased luciferase activity was evaluated as a measurement of the effect on each receptor activation.
After 3 hours of transfection, medium was exchanged to Alpha Minimal Essential Medium (α-MEM) comprising 10% fetal bovine serum (FBS). Next day, the medium was exchanged to α-MEM comprising the analog of the present invention and 0.1% bovine serum albumin (BSA). After 6 hours, dual luciferase assay reagent was added in the same amount as the medium in which the cells were submerged, and firefly luciferase and Renilla luciferase activities were continuously measured. Firefly luciferase activity values were corrected against Renilla luciferase activity to yield transfection efficiency.

Sequence of Human glucagon receptors (P47871 26-477): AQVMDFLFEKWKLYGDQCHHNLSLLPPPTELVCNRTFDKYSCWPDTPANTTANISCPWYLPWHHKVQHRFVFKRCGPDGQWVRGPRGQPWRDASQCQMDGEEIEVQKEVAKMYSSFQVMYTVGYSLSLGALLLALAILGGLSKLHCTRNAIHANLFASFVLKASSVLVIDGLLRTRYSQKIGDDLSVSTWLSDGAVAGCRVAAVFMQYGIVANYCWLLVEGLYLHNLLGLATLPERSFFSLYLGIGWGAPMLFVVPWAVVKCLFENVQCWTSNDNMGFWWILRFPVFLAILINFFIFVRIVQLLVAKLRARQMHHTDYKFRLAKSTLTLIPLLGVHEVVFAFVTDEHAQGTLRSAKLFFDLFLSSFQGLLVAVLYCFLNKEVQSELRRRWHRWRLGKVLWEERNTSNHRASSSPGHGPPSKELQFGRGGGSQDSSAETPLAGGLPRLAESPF

EC50 [1] | EC50 [2] | Compound
0.01 to 0.1 nM | 0.01 to 0.1 nM | CCCCCCCCCCCCCCCCCCCC(=O)N[C@@H](CCC(=O)NCCOCCOCC(=O)NCCOCCOCC(=O)NCCCC[C@H](NC(=O)[C@H](CC(=O)O)NC(=O)[C@H](CO)NC(=O)[C@@H](NC(=O)[C@H](Cc1ccccc1)NC(=O)[C@@H](NC(=O)CNC(=O)[C@H](CCC(N)=O)NC(=O)C(C)(C)NC(=O)[C@@H](N)Cc1c[nH]cn1)[C@@H](C)O)[C@@H](C)O)C(=O)N[C@@H](CO)C(=O)N[C@@H](CCCCN)C(=O)N[C@@H](Cc1ccc(O)cc1)C(=O)N[C@@H](CC(C)C)C(=O)N[C@@H](CC(=O)O)C(=O)NC(C)(C)C(=O)N[C@@H](CCCNC(=N)N)C(=O)N[C@@H](CCCNC(=N)N)C(=O)N[C@@H](C)C(=O)N[C@@H](CCC(N)=O)C(=O)N[C@@H](CC(=O)O)C(=O)N[C@@H](Cc1ccccc1)C(=O)N[C@H](C(=O)N[C@@H](CCC(N)=O)C(=O)N[C@@H](Cc1c[nH]c2ccccc12)C(=O)N[C@@H](CC(C)C)C(=O)N[C@@H](CCSC)C(=O)N[C@@H](CC(N)=O)C(=O)N[C@H](C(=O)N[C@@H](CCCCN)C(=O)O)[C@@H](C)O)C(C)C)C(=O)O [Compound 8]
< 0.01 nM | < 0.01 nM | CCCCCCCCCCCCCCCCCC(=O)N[C@@H](CCC(=O)NCCOCCOCC(=O)NCCOCCOCC(=O)NCCCC[C@H](NC(=O)[C@H](CC(=O)O)NC(=O)[C@H](CO)NC(=O)[C@@H](NC(=O)[C@H](Cc1ccccc1)NC(=O)[C@@H](NC(=O)CNC(=O)[C@H](CCC(N)=O)NC(=O)C(C)(C)NC(=O)[C@@H](N)Cc1c[nH]cn1)[C@@H](C)O)[C@@H](C)O)C(=O)N[C@@H](CO)C(=O)N[C@@H](CCCCN)C(=O)N[C@@H](Cc1ccc(O)cc1)C(=O)N[C@@H](CC(C)C)C(=O)N[C@@H](CC(=O)O)C(=O)N[C@H]1CCC(=O)NCCCC[C@@H](C(=O)N[C@@H](CC(=O)O)C(=O)N[C@@H](Cc2ccccc2)C(=O)N[C@H](C(=O)N[C@@H](CCC(N)=O)C(=O)N[C@@H](Cc2c[nH]c3ccccc23)C(=O)N[C@@H](CC(C)C)C(=O)N[C@@H](CCSC)C(=O)N[C@@H](CC(N)=O)C(=O)N[C@H](C(=O)N[C@@H](CCCCN)C(N)=O)[C@@H](C)O)C(C)C)NC(=O)[C@H](C)NC(=O)[C@H](CCCNC(=N)N)NC(=O)[C@H](CCCNC(=N)N)NC1=O)C(=O)O [Compound 19, H-HAibQGTFTSDZSKYLDERRAKDFVQWLMNTK-NH2]
0.01 to 0.1 nM | 0.01 to 0.1 nM | CSCC[C@H](NC(=O)[C@H](CC(C)C)NC(=O)[C@H](Cc1c[nH]c2ccccc12)NC(=O)[C@H](CCC(N)=O)NC(=O)[C@@H](NC(=O)[C@H](Cc1ccccc1)NC(=O)[C@H](CC(=O)O)NC(=O)[C@H](CCC(N)=O)NC(=O)[C@H](C)NC(=O)[C@H](CCCNC(=N)N)NC(=O)[C@H](CCCNC(=N)N)NC(=O)C(C)(C)NC(=O)[C@H](CC(=O)O)NC(=O)[C@H](CC(C)C)NC(=O)[C@H](Cc1ccc(O)cc1)NC(=O)[C@H](CCCCN)NC(=O)[C@H](CO)NC(=O)[C@H](CCCCNC(=O)COCCOCCNC(=O)COCCOCCNC(=O)CC[C@H](NC(=O)CCCCCCCCCCCCCCCCC(N)=O)C(=O)O)NC(=O)[C@H](CC(=O)O)NC(=O)[C@H](CO)NC(=O)[C@@H](NC(=O)[C@H](Cc1ccccc1)NC(=O)[C@@H](NC(=O)CNC(=O)[C@H](CCC(N)=O)NC(=O)C(C)(C)NC(=O)[C@@H](N)Cc1c[nH]cn1)[C@@H](C)O)[C@@H](C)O)C(C)C)C(=O)N[C@@H](CC(N)=O)C(=O)N[C@H](C(=O)N[C@@H](CCCCN)C(=O)O)[C@@H](C)O [Compound 13]
